Test results: patent publication US5508310A, “Immunopotentiatory agents and physiologically acceptable salts thereof” (Burroughs Wellcome Co., priority 1992, dated 1996)
Where “and” joins values, the source holds several entries; their conditions need not be identical. Equal entries are not always repeated.

What was measured:
[1] = system: mononuclear cell fraction of blood from healthy donors immunised with tetanus toxoid; assay type: cell-based, human (healthy donors)
[2] = system: mouse colon adenocarcinoma 38 (MCA38); assay: Antitumour activity: outgrowth of subcutaneously implanted mouse colon adenocarcinoma 38 (MCA38) in C57BL/6 mice; assay type: in vivo, mouse (C57BL/6); details: for Tumour weight on day 24 after tumour implantation (individual mice): intraperitoneally, every alternate day, 9 doses, individual animal values; for Mean % red. (tumour weight) / Median % red. (tumour weight): vs controls (group A); for Mean tumour weight on day 24: controls mean 0.635; for Median tumour weight on day 24: controls median 0.636
Description: The activity of the tucaresol was evaluated against the outgrowth of subcutaneously implanted mouse colon adenocarcinoma 38 (MCA38) in female C57BL/6 mice, using the following protocol:
Day 0 Fifteen, female and 16 male C57BL/6 mice each im-
planted subcutaneously with one 2 mm cube of tumour.
Mice randomized and divided into three groups -
Group A, 5 females and 5 males, Group B, 5 females
and 5 males, Group C, 5 females and 6 males.
Day 5 Test groups B and C each dosed with 589C80 (1 mg or
to 0.2 mg per mouse dissolved in 0.2 ml PBS,
intraperitoneally) once every alternate day (total of 9
doses). Control mice (group A) given PBS alone.
All mice killed, tumours excised and weighed. Mean and
median tumour weight in test group compared with
Tucaresol was dissolved in PBS by dropwise addition of 1M KOH to pH 10.0 followed by dropwise addition of conc. HCL to return pH to neutral.
Dosing schedule where drug was given on alternate days was chosen in order to extend the dosing period over 14 rather than 7 days. By so doing tumours were exposed to the drug from day 13 right up until […] i.e. 2 days before the experiment was terminated.

Pneumocystis carinii = details: AIDS patients; Wofsy 1986; cited from earlier work

Compound: O=CCCc1ccccc1 [Compound 5, 3-Phenylproponion-aldhyde]
- IC50 Ratio with 4-Hydroxyphenylacetaldehyde [1]: 40

Compound: O=Cc1c(O)cccc1OCc1ccc(C(=O)O)cc1 [Tucaresol]
- Tumour weight on day 24 after tumour implantation (individual mice) ([2]; Group B, 1.0 mg/mouse): 0.740 grammes and 0.695 grammes and 0.358 grammes and 0.303 grammes and 0.298 grammes and 0.090 grammes and 0.079 grammes and 0.038 grammes and 0.022 grammes
- Mean % red. (tumour weight) ([2]; Group B, 1.0 mg/mouse): 54.2%
- Median % red. (tumour weight) ([2]; Group B, 1.0 mg/mouse): 53.15%
- Mean tumour weight on day 24 ([2]; Group B, 1.0 mg/mouse, S.D. 0.272): 0.291 grammes
- Median tumour weight on day 24 ([2]; Group B, 1.0 mg/mouse): 0.298 grammes
- Tumour weight on day 24 after tumour implantation (individual mice) ([2]; Group C, 0.2 mg/mouse): 0.802 grammes and 0.272 grammes and 0.230 grammes and 0.197 grammes and 0.181 grammes and 0.126 grammes and 0.085 grammes and 0.029 grammes and 0.019 grammes and 0.006 grammes
- Mean % red. (tumour weight) ([2]; Group C, 0.2 mg/mouse): 70.4%
- Median % red. (tumour weight) ([2]; Group C, 0.2 mg/mouse): 80.19%
- Mean tumour weight on day 24 ([2]; Group C, 0.2 mg/mouse, S.D. 0.222): 0.188 grammes
- Median tumour weight on day 24 ([2]; Group C, 0.2 mg/mouse): 0.126 grammes
- Inhibition of outgrowth of subcutaneously implanted MCA38 ([2]; syngeneic C57BL/6 mice, result in words): inhibited the outgrowth

Compound: N=C(N)c1ccc(OCCCCCOc2ccc(C(=N)N)cc2)cc1 [pentamidine]
- Effectiveness in Pneumocystis carinii pneumonia (Pneumocystis carinii): 50-70%
- Incidence of adverse reactions (Pneumocystis carinii): around 50%

Compound: trimethoprim-sulphamethoxazole
- Effectiveness in Pneumocystis carinii pneumonia (Pneumocystis carinii): 50-70%
